Measurements published in US5594001A, “Polycyclic systems, and derivatives thereof, as neurotransmitter release enhancers useful in the treatment of cognitive disorders” (The DuPont Merck Pharmaceutical Company, priority 1994, dated 1997).
Structures can show the parent of a compound that is named as a salt.

Key:
[1] = test system: ACh level in the rat hippocampus; experiment: Microdialysis, ACh levels in the rat hippocampus in vivo; design: species or system rat (male Wistar); settings: for AUC, Area % under the curve / Peak, maximal % increase of ACh release over baseline / time of Peak after administration / Duration, minutes of release above statistical significance: Table IV
Procedure: Male Wistar Rats are anaesthetized and guide cannulas stereotaxically implanted into the brain at the level of the dorsal hippocampus. Following a minimum recovery period of 72 h, dialysis probes (0.5 mm diameter, 4.0 mm long, from BAS) are inserted into the hippocampus through the guide cannulas. The probes are perfused at a rate of 2 μl/min with artificial cerebrospinal fluid containing 100 μM physostigmine sulfate (a cholinesterase inhibitor). Rats are allowed to acclimate for 2 hours prior to sample collection. Dialysate samples are collected every 20 min (40 μl) and immediately injected onto a high performance liquid chromatograph equipped for electrochemical detection (HPLC-EC) of acetylcholine (ACh). Following collection of 3 baseline samples, drugs or vehicle control are administered in 0.01 ml/g body weight and dialysate samples are collected for an additional 3 h. The ACh peak heights of the 3 samples prior to drug administration are averaged together to determine baseline ACh levels. ACh peak heights post drug administration are measured and used to determine percent change over baseline ACh levels. At the end of experiments, probe placement is verified histologically.
ACh is separated by reverse phase chromatography (Hamilton PRP-1 column 150×4.5 mm) and converted to acetate, betaine and hydrogen peroxide on an immobilized enzyme reactor column (BAS). Hydrogen peroxide is then detected electrochemically. Mobile phase for the chromatography consists of 0.2M Na2 HPO4, 0.1 mM EDTA, 0.5 mM SOS, 0.9 mM TMA.Cl, with pH adjusted to 8.0 with phosphoric acid and […] Kathon CG (ESA) added to each liter of mobile phase to retard bacterial growth.
FIGS. 1 and 2 show the effects of fluorine substitution to the pendant groups of the anthrone and azafluorene core series on the ability of compounds to increase the level of ACh in the rat hippocampus in vivo. All compounds were tested at 5 mg/kg except Ex. No 64 which was administered at 1 mg/kg. […] This was observed even though the compound was administered by a route (i.p.) which should lead to greater bioavailability than the oral route. Example 68 of the present invention, the bis-fluorinated analog of Example 611 or U.S. Pat. No. 5,173,489, on the other hand, led to a 2-fold increase in ACh levels which was maintained for over 1 hour (FIG. 1). The anthrone compound Ex. No. 440 of U.S. Pat. No. 5,173,489, at 5 mg/kg, led to a peak ACh level of 72% over baseline (FIG. 2). Ex. No. 64 of the present invention, which is the bis-fluoro analog of Ex. No. 440 of U.S. Pat. No. 5,173,489, at 1 mg/kg, led to a delayed increase in ACh levels reaching a peak of over 100% above baseline (FIG. 2). In contrast to the observed effects of Example 440 of U.S. Pat. No. 5,173,489, the increase in ACh level after administration of Example 64 of the present invention was maintained for the entire duration of testing (3 hours).

[2] = test system: stimulus-induced acetylcholine release, slices from the parietal cortex; experiment: Neurotransmitter (ACh) release assay, rat cortex slices, K+ stimulated; format: cell-based, rat (male Wistar); settings: for activation at 10 µM: Table II, % increase of drug-induced ACh release; for EC50: Table III
Procedure: The neurotransmitter release activities of the compounds of this invention were determined using standard biochemical assay procedures for example, the neurotransmitter release assay as described below.
Neurotransmitter release assay.
The neurotransmitter (Ach) release activities of the compounds of this invention were determined by the assay as described by Nickolson, et al., Drug Development Research, (1990) 19: 285-300, a modification of the procedure described by Mulder, et al., Brain Res., (1974) 70: 372.
Male Wistar rats (Charies River) weighing 175-200 grams were used. Rats were decapitated and brains were dissected immediately. Slices (0.3 mm thick) from the parietal cortex were prepared (approximately 100 mg wet weight) and were incubated in 10 ml KrebsRinger medium (KR) containing NaCl (116 mM), KCl (3 mM), CaCl2 (1.3 mM), MgCl2 (1.2 mM), KH2 PO4 (1.2 mM), Na2 SO4 (1.2 mM), NaHCO3 (25.0 mM), and glucose (11.0 mM), to which was added 10 uCi ^3 H-choline (specific activity approximately 35 Ci/mM; NEN) and […] unlabeled choline to give a final concentration of one micromole. The brain preparations were incubated for 30 min. at 37° C. under a steady flow of 95% O2 /5% CO2. Under these conditions, part of the radioactive choline taken up by the preparation was converted into radioactive acetylcholine (ACh) by the cholinergic nerve endings stored in synaptic vesicles, and released upon depolarization by high potassium ion (K+) containing media.
After labelling of the ACh stores, the slices were washed three times with non-radioactive KR medium and transferred to a superfusion apparatus to measure the drug effects on ACh release. The superfusion apparatus consisted of 10 thermostated glass columns of 5 mm diameter that were provided with GF/F glass fiber filters to support the slices (approximately 10 mg tissue/column). Superfusion was carried out in KR-medium (0.3 ml/min.) containing […] hemicholine-3 (HC-3). The HC-3 prevents the reuptake of choline formed during the superfusion from phospholipids and released ACh, which would be converted into unlabeled ACh and released in preference to the preformed labeled ACh. The medium was delivered by a 25-channel peristaltic pump (Ismatec by Brinkman) and warmed to 37° C. in a thermostated stainless steel coil before entering the superfusion column. Each column was provided with a 4-way slider valve (Beckmann instruments) which allowed rapid change of low to high K+/KR-medium, and with two 10-channel 3-way valves that were used to change from drug-free to drug-containing low and high K+/KR-medium. After 15 min. of washout of non-specifically bound radioactivity, collection of 4 min. fractions was initiated. After three 4 min. collections, the original medium was changed to a KR-medium in which the KCl concentration had been increased to 25 mM (high K+ medium) (S1). Depolarization-induced stimulation of release by high K+/KR-medium lasted for 4 min. Drug free low and high K+/KR-media were then substituted by drug- and vehicle-containing low- and high-K+/KR-medium, and superfusion was continued for three 4 min. collections with low K+/KR-medium, one 4 min. collection with high K+/KR-medium (s2), and two 4 min. collections with low K+/KR-medium.
Drug was added to the media by 100-fold dilutions of appropriate concentrations of the drug (in 0.9% saline) with either low- or high-K+/KR-medium. For comparative purposes, linopirdine was also run.
All superfusion fractions were collected in liquid scintillation counting vials. After superfusion, the slices were removed from the superfusion columns and extracted with 1.0 ml of 0.1N HCl. Liquiscint (NEN) counting fluid (12 ml) was added to superfusion fractions and extracts, and the samples were counted in a Packard Tricarb Liquid Scintillation Counter. No corrections were made for quenching. […]

[3] = 5 mg/kg, vehicle methocel, NSP = no significant points

With `O=C1c2ccccc2C(Cc2ccncc2)(Cc2ccncc2)c2ccccc21` [Ex 440 U.S. Pat. No. 5,173,489, reference compound] the “peak ACh level over baseline” value ([1]; 5 mg/kg oral, FIG. 2) was 72%, the “AUC, Area % under the curve” value ([1]; 5 mg/kg, vehicle water) was 44 ± 34% and the “Peak, maximal % increase of ACh release over baseline” value (shortened to “Peak, maximal % increase”) ([1]; 5 mg/kg, vehicle water) was 18 ± 15%. The “time of Peak after administration” value ([1]; 5 mg/kg, vehicle water) was 20 min, the “Duration, minutes of release above statistical significance” value ([1]; 5 mg/kg, vehicle water, NSP = no significant points) was “NSP” and the “AUC, Area % under the curve” value ([1]; 10 mg/kg, vehicle water) was 705 ± 112%. The “Duration, minutes of release above statistical significance” value ([1]; 10 mg/kg, vehicle water) was 100 min, the “Peak, maximal % increase” value ([1]; 10 mg/kg, vehicle water) was 127 ± 31% and the “time of Peak after administration” value ([1]; 10 mg/kg, vehicle water) was 60 min.

For `c1ccc2c(c1)-c1ncccc1C2(Cc1ccncc1)Cc1ccncc1` [Ex. No 611 of U.S. Pat. No. 5,173,489, reference compound], the “effect on ACh levels over what was observed after vehicle administration” value ([1]; 5 mg/kg i.p., FIG. 1) was “no effect on ACh levels”.

`c1ccc2c(c1)-c1sccc1C2Cc1ccncc1` (centres unmarked) [Example 1, 4-(4-Pyridinylmethyl)-4H-indeno[1,2-B]thiophene] gave an activation at 10 µM [2] of 92%.

`N#Cc1cccc(CC2(Cc3ccncc3)c3ccccc3-c3sccc32)c1` (centres unmarked) [Example 2, 3-[4-(4-Pyridinylmethyl)-4H-indeno[1,2-B]thiophen-4-ylmethyl-benzonitrile Hydrobromide Hydrate] showed an activation at 10 µM [2] of 220%.

`N#CCCCCC1(Cc2ccncc2)c2ccccc2-c2sccc21` (centres unmarked) [Example 3, 4-(4-Pyridinylmethyl)-4H-indeno[1,2-B]thiophene-4-pentanenitrile Hydrobromide Hydrate] was tested, and the activation at 10 µM [2] was 145%.

`CCOC(=O)CC1(Cc2ccncc2)c2ccccc2-c2sccc21` (centres unmarked) [Example 4, 4-(4-Pyridinylmethyl)-4H-indeno[1,2-B]thiophene-4-acetic acid, Ethyl Ester Hydrochloride] was tested, and the activation at 10 µM [2] was 146%.

`CC(=O)OCCCCC1(Cc2ccncc2)c2ccccc2-c2sccc21` (centres unmarked) [Example 5, 4-(4-Pyridinylmethyl)-4H-indeno[1,2-B]thiophene-4-butanol Acetate (Ester) Hydrochloride] showed an activation at 10 µM [2] of 224%.

For `NC(=O)CCCCC1(Cc2ccncc2)c2ccccc2-c2sccc21` (centres unmarked) [Example 6, 4-(4-Pyridinylmethyl)-4H-indeno[1,2-B]thiophene-4-pentanamide Hydrochloride Hydrate], the activation at 10 µM [2] was 163%.

For `c1ccc(CC2(Cc3ccncc3)c3ccccc3-c3sccc32)cc1` (centres unmarked) [Example 8], the activation at 10 µM [2] was 130%.

Molecule `c1cnc2c(c1)C(Cc1ccncc1)c1ccsc1-2` (centres unmarked) [Example 10, 4-(4-Pyridinylmethyl)-4H-thieno[2',3':3,4]cyclopenta[1,2-B]pyridine] has an activation at 10 µM [2] of 118%.

Molecule `Fc1cc(CC2(Cc3ccncc3)c3cccnc3-c3sccc32)ccn1` (centres unmarked) [Example 11, 4-[(2-Fluoro-4-pyridinyl)methyl]-4-(4-pyridinylmethyl)-4H-thieno[3',2':4,5]cyclopenta[1,2-B]pyridine] has an activation at 10 µM [2] of 757%.

`c1ccc(-n2cc3c(n2)-n2cccc2C3(Cc2ccncc2)Cc2ccncc2)cc1` [Example 15, 2,4-Dihydro-2-phenyl-4,4-bis(4-pyridinylmethyl)pyrazolo[4,3-B]pyrrolizine] showed an activation at 10 µM [2] of 348%.

With `Oc1ccc2c(c1)C(Cc1ccnc(F)c1)(Cc1ccnc(F)c1)c1ccccc1-2` [Example 61, 9,9-Bis((2-fluoro-4-pyridinyl)methyl)-2-hydroxy-9H-fluorene] the “AUC, Area % under the curve” value ([1]; 5 mg/kg, vehicle methocel) was 95 ± 61%, the “Peak, maximal % increase” value ([1]; 5 mg/kg, vehicle methocel) was 48 ± 22% and the “time of Peak after administration” value ([1]; 5 mg/kg, vehicle methocel) was 20 min. The “Duration, minutes of release above statistical significance” value [1, 3] was 40 min.

For `O=C1c2ccccc2C(Cc2ccncc2)(Cc2ccnc(F)c2)c2ccccc21` [Example 66], the EC50 [2] was 310 nM.

`Fc1cc(CC2(Cc3ccncc3)c3ccccc3Oc3ncccc32)ccn1` (centres unmarked) [Example 70, 9-((2-Fluoro-4-pyridinyl)methyl)-9-(4-pyridinylmethyl)-4-azaxanthene] gave an EC50 [2] of 350 nM.

`COc1ccc2c(c1)C(=O)c1ccc(OC)cc1C2(Cc1ccnc(F)c1)Cc1ccnc(F)c1` [Example 74, 10,10-Bis((2-fluoro-4-pyridinyl)methyl)-2,6-dimethoxy-9(10H)-anthracenone] was tested, and the EC50 [2] was 880 nM.

`COc1ccc2c(c1)C(Cc1ccnc(F)c1)(Cc1ccnc(F)c1)c1ccccc1C2=O` [Example 77, 10,10-Bis((2-fluoro-4-pyridinyl)methyl)-3-methoxy-9(10H)-anthracenone] showed an EC50 [2] of 660 nM.

`C#Cc1ccc2c(c1)C(Cc1ccnc(F)c1)(Cc1ccnc(F)c1)c1cccnc1-2` [Example 79, 5,5-Bis((2-fluoro-4-pyridinyl)methyl)-7-(ethynyl)-5H-indeno-[1,2-b]pyridine] was tested, and the EC50 [2] was 2650 nM.

With `O=S1(=O)c2ccccc2C(Cc2ccnc(F)c2)(Cc2ccnc(F)c2)c2ccccc21` [Example 107, 5,5-Bis-(2-fluoropyridin-4-ylmethyl)thioxanthene-10,10-dioxide] the “AUC, Area % under the curve” value ([1]; 5 mg/kg, vehicle methocel) was 281 ± 226%, the “Peak, maximal % increase” value ([1]; 5 mg/kg, vehicle methocel) was 41 ± 10% and the “time of Peak after administration” value ([1]; 5 mg/kg, vehicle methocel) was 20 min. The “Duration, minutes of release above statistical significance” value [1, 3] was “NSP”.

With `[O-][S+]1c2ccccc2C(Cc2ccnc(F)c2)(Cc2ccnc(F)c2)c2ccccc21` [Example 108, 5,5-Bis(2-fluoropyridin-4-ylmethyl)thioxanthene-10-oxide] the “AUC, Area % under the curve” value ([1]; 1 mg/kg, vehicle methocel) was 184 ± 124%, the “Peak, maximal % increase” value ([1]; 1 mg/kg, vehicle methocel) was 34 ± 19% and the “time of Peak after administration” value ([1]; 1 mg/kg, vehicle methocel) was 100 min. The “Duration, minutes of release above statistical significance” value ([1]; 1 mg/kg, vehicle methocel, NSP = no significant points) was “NSP”, the “AUC, Area % under the curve” value ([1]; 5 mg/kg, vehicle methocel) was 799 ± 202% and the “Peak, maximal % increase” value ([1]; 5 mg/kg, vehicle methocel) was 108 ± 80%. For the same molecule, the “time of Peak after administration” value ([1]; 5 mg/kg, vehicle methocel) was 80 min and the “Duration, minutes of release above statistical significance” value [1, 3] was “>”.
